Where a name gives a salt, the structure may show the parent alone. Read-outs that look alike come from different tables or passages of the source.

Data set [1] in a line: clinical. The following applies: both, human, in vivo; for AUC(0-t): AUC0–tz (geoMean); for Cmax: Cmax (geoMean), healthy subjects.
The conditions of data set [2]: repeated freeze/thaw cycles, short- (24 h) and long-term (30 day) storage; cited from earlier work.
For data set [3] the following is noted: cited from earlier work.
Data set [4] relates to healthy women and men. As to conditions: mild.
[5] abbreviates: iv, 30 mg, plasma, single IV 30 mg fasudil over 30 min.

In the case of `O=S(=O)(c1cccc2c(O)nccc12)N1CCCNCC1` [hydroxyfasudil], the half-life in data set [1] (iv) was 342 min. Besides, the Tmax in data set [1] (iv, 30 mg) is 45 min. Besides, in data set [1] (setting [5]), the exposure AUC(0-t) is 439 ng·h/mL and the Cmax is 108 ng/mL. This compound also showed a total exposure AUC(0-inf) in data set [1] (iv, 30 mg, AUC0–∞ (geoMean), plasma, single IV 30 mg fasudil over 30 min) of 460 ng·h/mL. Further, in data set [1] (po, 30 mg), the Tmax worked out at 30 min and the half-life is 332 min. The “sample stability (human plasma)” value in data set [2] is reported as greater than 94%. The serum half-life in data set [3] (after IV administration of fasudil) is 100 to 200 min. Besides, the “exposure (AUC)” value in data set [3] (after IV applications (30 mg fasudil over 30 min)) is 400 to 555 ng·h/mL. Moreover, the “exposure (AUC)” value in data set [3] (investigational oral solution, 40 mg fasudil hydrochloride) is 300 ng·h/mL. For the same compound, under “both, human, in vivo”, the “AUC0–tz LS mean ratio (oral/IV treatment) point estimate (90% CI)” value is 64.52 (60.32–69.01) % and the “AUC0–∞ LS mean ratio (oral/IV treatment) point estimate (90% CI)” value is reported as 64.76 (60.11–69.78) %. For the same compound, the “hydroxyfasudil concentration after oral treatment compared with IV treatment” value (linear mixed-effect model of the full analysis set) amounted to 65%. In addition, the “Cmax LS mean ratio (oral/IV treatment) point estimate (90% CI)” value (linear mixed-effects model) is 102.97 (89.53–118.43) %.
On to `O=S(=O)(c1cccc2cnccc12)N1CCCNCC1` [fasudil, fasudil hydrochloride, reference compound], for which the “subjects with TEAE assessed as related to the IMP ("headache")” value in data set [4] (IV treatment, one subject, recovered/resolved) was 7.1%. In addition, in data set [4] (oral fasudil, "fatigue", not related to the IMP), the “treatment emergent adverse events (TEAEs), oral treatment” value is recorded as “One TEAE”. For the same compound, the Tmax in data set [1] (iv, 30 mg) worked out at 22.5 min. In data set [1] (setting [5]), this compound displayed an AUC(0-t) of 55.6 ng·h/mL and a Cmax of 101 ng/mL. Further, the time to peak (Tmax) in data set [1] (po, 30 mg) is 15 min.

As usually defined, the half-life is the time needed for the level to fall by half in the phase considered. The Tmax is the time at which the peak concentration occurs. The AUC(0-t) is the area under the concentration-time curve up to a stated or last time point. Low readings indicate less exposure, high ones more exposure. Usually AUC(0-inf) stands for total exposure, with the tail of the curve extrapolated. A higher AUC(0-inf) goes with more exposure. As a reminder, the Cmax is the highest concentration seen after dosing.

(Values after publication PMC10980656 (CNS Drugs, 2024).)
